# Read-outs that look alike come from different tables or passages of the source. Square brackets hold non-standard residues; d marks the D form. Peptide text beside a SMILES is read from it. Ahx = NCCCCCC(=O)O
# System: Enterobacter
# Assay type: cell-based
# Description: The IC50 is determined by an essay, suitable for the specific film-forming microorganism in question. For example, in the present invention, the Enterobacter assay, which is described in detail in the methods section below, was used to determine the antimicrobial activities of the tested peptides.
# Quantitative Biofilm Growth Inhibition Assay in a 96-Wells Microtiter Plate:
# Enterobacter culture (50 ml) was grown in tryptic soy broth media (TBS; prepared according to manufacturer instructions) overnight at 25° C. On the next day the turbidity of the culture was measured at 600 nm (Biomate 5 UV-Vis spectrophotometer, Thermo Fisher Scientific, Waltham, Mass.) and, if necessary, TSB was added to dilute the culture until the OD was 1.
# Then 96 wells polystyrene microtiter plates (flat bottom, transparent, Becton Dickinson, Franklin Lakes, New-Jersey) were filled as following: Negative control wells (without bacteria) were filled with 125 μl TSB media and 25 μl of DDW:PBS1:1 buffer solution; Positive control wells (without peptide solution) were filled with 110 μl TSB media, 25 μl of DDW:PBS1:1 buffer solution and 15 μl of Enterobacter culture solution; Wells that contained AMPs at different concentrations were filled with 110 μl TSB media, 25 μl of peptide solution and 15 μl of Enterobacter culture solution.
# The plates were incubated at 25° C. overnight. On the next day the plates were gently rinsed 5 times with distilled water to remove the planktonic bacteria and then dried at room temperature for 10 minutes. Then the biofilm on the walls of the wells was dyed by adding 200 μl, of 3% crystal violet (CV) to the wells. After 15 minutes at room temperature, the plates were gently rinsed 5 times with distilled water to remove excess dye and dried at room temperature for 10 minutes (Djordjevic, Wiedmann & McLandsborough 2002). The dry plates were filled with 200 μl ethanol, covered and gently agitated (Duomax 1030 rocking platform shaker, Heidolph, Kelheim, Germany) for 1 hour. The absorbance of extracted color was measured in a plate reading spectrophotometer (Infinite M200, Tecan, Mannedorf, Switzerland) at 595 nm.
# The effect of linking the arm to a peptide, on the antimicrobial activity of the peptides was assessed by measuring the peptide activity in 96-microtitter plates in solution and comparing to activities of the normal peptides. Experiments were performed in water and in 3% NaCl solution. Table 6 presents the antimicrobial activity (IC50) of peptide-arm systems, in water and in 3% NaCl solution. Values were extracted from dose-response curves.
# Different concentration solutions of peptides, bought or prepared as detailed in the methods section above, were prepared by diluting a stock solution with 1% ACN. Stock solution was prepared by dissolving water soluble peptides in DDW:PBS1:1. PBS (pH=7.4) was prepared by adding to 800 ml DDW, 8 grams NaCl, 0.2 grams KCl, 1.44 grams Na2HPO4 and 0.2 grams KH2PO4.
# To evaluate whether attachment of a tether to the AMPs has an effect on the inhibitory potency, a PEGylated peptide (HS-PEG-D-Modelin-1) was prepared, and its inhibitory potency compared to that of the ‘normal’ peptide All-D-Modelin-1. Peptides were diluted in 2-fold serial dilutions, and the antibacterial activity of the peptides was determined in sterile 96-multititter plates.
IC50 in 3% Aqueous NaCl,SMILES,IC50 Normal conditions,"IC50 Normal conditions (peptide in solution, water, 96-microtitter plates, values extracted from dose-response curves)","IC50 (repeated assay, D-Modelin-1 (crude) and HS-PEG-D-Modelin-1 prepared in the same synthesis)"
>300 µg/mL,"N=C(N)NCCC[C@H](NC(=O)CCCCCNC(=O)[C@@H](N)CS)C(=O)N[C@@H](CCCNC(=N)N)C(=O)N[C@@H](Cc1c[nH]c2ccccc12)C(=O)N[C@@H](Cc1c[nH]c2ccccc12)C(=O)N[C@@H](CCCNC(=N)N)C(=O)N[C@@H](Cc1ccccc1)C(N)=O [CX-Hexapeptide-4, CXRRWWRF-NH2] (H-C[Ahx]RRWWRF-NH2; N-terminus assumed)",80 µg/mL,,
100 µg/mL,"N=C(N)NCCC[C@H](NC(=O)[C@H](Cc1c[nH]c2ccccc12)NC(=O)[C@H](Cc1c[nH]c2ccccc12)NC(=O)[C@H](CCCNC(=N)N)NC(=O)[C@@H](N)CCCNC(=N)N)C(=O)N[C@@H](Cc1ccccc1)C(N)=O [Hexapeptide-4, RRWWRF-NH2, reference compound] (H-RRWWRF-NH2; N-terminus assumed)",60 µg/mL,,

# Second part, the compound before the results:
SMILES,IC50 in 3% Aqueous NaCl,IC50 Normal conditions,"IC50 Normal conditions (peptide in solution, water, 96-microtitter plates, values extracted from dose-response curves)","IC50 (repeated assay, D-Modelin-1 (crude) and HS-PEG-D-Modelin-1 prepared in the same synthesis)"
CC(C)C[C@H](NC(=O)[C@H](CCCCN)NC(=O)[C@H](Cc1ccccc1)NC(=O)[C@H](CC(C)C)NC(=O)[C@H](CC(C)C)NC(=O)CNC(=O)[C@H](CCCCN)NC(=O)[C@H](CC(C)C)NC(=O)[C@H](CCCCN)NC(=O)[C@@H]1CCCN1C(=O)[C@H](CC(C)C)NC(=O)[C@H](CC(C)C)NC(=O)[C@H](CC(C)C)NC(=O)[C@H](CCCCN)NC(=O)[C@H](CC(C)C)NC(=O)[C@H](CC(C)C)NC(=O)[C@H](CCCCN)NC(=O)[C@H](Cc1ccc(O)cc1)NC(=O)CNC(=O)CNC(=O)CNC(=O)CNC(=O)[C@@H](N)CS)C(N)=O [CG4-L^6P^9G^13F^16] (H-CGGGGYKLLKLLLPKLKGLLFKL-NH2; N-terminus assumed),>300 µg/mL,110 µg/mL,,
"CC(C)C[C@H](NC(=O)[C@H](CCCCN)NC(=O)CCCCCNC(=O)[C@@H](N)CS)C(=O)N[C@@H](Cc1c[nH]c2ccccc12)C(=O)N[C@@H](CCCCN)C(=O)N[C@@H](CCCCN)C(=O)N[C@@H](Cc1c[nH]c2ccccc12)C(=O)N[C@@H](C)C(=O)N[C@@H](CCCCN)C(=O)N[C@@H](CCCCN)C(=O)N[C@@H](Cc1c[nH]c2ccccc12)C(=O)N[C@@H](CC(C)C)C(=O)N[C@@H](CCCCN)C(=O)N[C@@H](CC(C)C)C(=O)N[C@@H](Cc1c[nH]c2ccccc12)C(=O)N[C@@H](CCCCN)C(=O)N[C@@H](C)C(=O)N[C@@H](Cc1c[nH]c2ccccc12)C(=O)O [CX-Modelin-1, CXKLWKKWAKKWLKLWKAW] (H-C[Ahx]KLWKKWAKKWLKLWKAW-OH; N-terminus assumed)",,60 µg/mL,,
"CC[C@H](C)[C@H](NC(=O)[C@H](CCCNC(=N)N)NC(=O)CNC(=O)[C@H](CC(C)C)NC(=O)[C@H](Cc1ccccc1)NC(=O)[C@H](CCCCN)NC(=O)[C@H](CO)NC(=O)[C@H](Cc1ccccc1)NC(=O)[C@H](Cc1c[nH]c2ccccc12)NC(=O)[C@H](CCC(N)=O)NC(=O)[C@@H](NC(=O)[C@H](Cc1ccccc1)NC(=O)CCCCCNC(=O)[C@@H](N)CS)C(C)C)C(=O)N[C@@H](CC(C)C)C(N)=O [CX-Temporin-L, CXFVQWFSKFLGRIL-NH2] (H-C[Ahx]FVQWFSKFLGRIL-NH2)",,,>300 µg/mL,
"CC(C)C[C@@H](NC(=O)[C@H](N)CCCCN)C(=O)N[C@H](Cc1c[nH]c2ccccc12)C(=O)N[C@H](CCCCN)C(=O)N[C@H](CCCCN)C(=O)N[C@H](Cc1c[nH]c2ccccc12)C(=O)N[C@H](C)C(=O)N[C@H](CCCCN)C(=O)N[C@H](CCCCN)C(=O)N[C@H](Cc1c[nH]c2ccccc12)C(=O)N[C@H](CC(C)C)C(=O)N[C@H](CCCCN)C(=O)N[C@H](CC(C)C)C(=O)N[C@H](Cc1c[nH]c2ccccc12)C(=O)N[C@H](CCCCN)C(=O)N[C@H](C)C(=O)N[C@H](Cc1c[nH]c2ccccc12)C(=O)O [D-Modelin-1, KLWKKWAKKWLKLWKAW]",,,,3 µg/mL
